Inhibition data for one compound are collected here from US20230002377A1, “THERAPEUTIC COMBINATIONS OF DRUGS AND METHODS OF USING THEM” (HARMONY BIOSCIENCES, LLC, priority 2020, published 2023).

The target in this assay is Transporter, Norepinephrine (NET) (Homo sapiens, UniProt P23975). The assay is described as follows: NET radioligand binding ([125I] RTI-55), Eurofins. The note with it: read-out: NET, % inhibition, 10 nM compound.
Transporter, Norepinephrine (NET), sequence (P23975 whole entry): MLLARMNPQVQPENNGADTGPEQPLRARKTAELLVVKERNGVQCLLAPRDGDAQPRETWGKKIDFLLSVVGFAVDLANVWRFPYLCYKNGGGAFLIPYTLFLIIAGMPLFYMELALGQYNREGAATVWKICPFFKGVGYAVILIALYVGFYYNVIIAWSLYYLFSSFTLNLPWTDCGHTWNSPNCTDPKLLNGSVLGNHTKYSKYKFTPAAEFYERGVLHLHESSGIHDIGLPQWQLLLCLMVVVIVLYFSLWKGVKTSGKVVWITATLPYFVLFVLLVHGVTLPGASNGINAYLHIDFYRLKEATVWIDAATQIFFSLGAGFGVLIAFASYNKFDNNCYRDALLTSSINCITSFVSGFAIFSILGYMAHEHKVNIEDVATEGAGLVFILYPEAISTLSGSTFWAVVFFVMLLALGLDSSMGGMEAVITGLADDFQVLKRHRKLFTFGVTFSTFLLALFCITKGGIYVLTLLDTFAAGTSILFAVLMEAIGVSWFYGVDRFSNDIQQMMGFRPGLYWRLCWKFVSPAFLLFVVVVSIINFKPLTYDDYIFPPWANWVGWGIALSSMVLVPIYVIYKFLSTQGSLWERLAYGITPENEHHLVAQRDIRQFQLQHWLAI

Method: Source: Human recombinant MDCK cells;
Incubation Time/Temp: 3 hours @ 4° C.;
Incubation Buffer: 50 mM Tris-HCl, pH 7.4, 100 mM NaCl, 1 μM Leupeptin, 10 μM PMSF;
Non-Specific Ligand: 10.0 μM Desipramine;
Quantitation Method: Radioligand Binding;

A word on the inhibition: it is the percentage by which the read-out fell short of the control. For the compound `Clc1ccc(C2CNCc3cc(-c4ccc5ncnn5c4)ccc32)cc1Cl` (stereo not shown) [Formula I, 7-([1,2,4]triazolo[1,5-a]pyridin-6-yl)-4-(3,4-dichlorophenyl)-1,2,3,4-tetrahydroisoquinoline], the inhibition at 0.01 µM was 35%.
